We go through three compounds from patent publication EP1282604B1, “SUBSTITUTED CAPROLACTAM CARBONATES AND ETHERS AND THEIR USE AS ANTI-TUMOR AGENTS” (Novartis AG, priority 2000, dated 2001).

The test system of data set [1] is MDA-MB-435 human breast carcinoma. As to the kind of experiment: Anchorage Dependent Growth Monolayer Assay (ADGMA), MTS readout. It is filed as cell-based. The following applies: Homo sapiens, 72 h; 3-day exposure, MDA-MB-435 cells; read-out: IC50 values (average ± S.D.) MDA-MB-435. From the text: (§1) As indicated above, all of the compounds of formula I, and their corresponding pharmaceutically acceptable acid addition salts, are anti-tumor agents and are, therefore, useful in inhibiting the growth of various lymphomas, sarcomas, carcinomas, myelomas, and leukemia cell lines. […] This assay was adapted from the 60 cell line assay used by the National Cancer Institute (NCl) with the following modifications: 1) cell lines representative for the important tumor types, viz., MDA-MB-435 human breast, A549 non-small cell lung, H1299 lung, HCT-116 colon and PC-3 prostate carcinomas, and U2OS osteosarcomas were utilized; and 2) a tetrazolium derivative, viz., 3-(4,5-dimethylthiazol-2-yl)-5-(3-carboxymethoxyphenyl)-2-(4-sulfophenyl)-2H-tetrazolium, inner salt (MTS), was utilized to determine cell density.
(§2) The ADGMA compares the number of viable cells following a 3-day exposure to a test compound relative to a number of cells present at the time the test compound was added. […] The absorbance at 490 nm (A490) of the formazan derivative is proportional to the number of viable cells. The IC50 for a test compound is the concentration of compound required to reduce the final cell number to 50% of the final control cell number. If cell proliferation is inhibited, the assay further defines compounds as cytostatic (cell number after 3-day compound incubation >cell number at time of compound addition) or cytotoxic (cell number after 3-day compound incubation <cell number at time of compound addition).
(§3) The MDA-MB-435 human breast carcinoma and the A549 non-small cell lung carcinoma lines were obtained from the American Type Culture Collection (ATCC) and used between passages 4-20 following thawing. MDA-MB-435 human breast carcinoma and A549 non-small cell lung carcinoma cells were maintained and plated in DME/F12 medium containing 10% fetal bovine serum, 15 mM HEPES (pH=7.4), 100 units/mL penicillin, and 100 µg/mL streptomycin.
(§4) Cell lines are trypsinized and counted using a Coulter counter to determine plating densities. Cells are then plated in their respective maintenance media (100 µL/well) in 96 well plates at the following densities: MDA-MB-435 and U2OS, 3,000 cells/well; A549 and HCT-116, 700 cells/well; H1299, 1,000 cells/well; and PC-3, 2500 cells/well. The number of cells plates as determined in preliminary experiments, results in cell densities of 75-90% of confluency by 4 days after plating. Initial cell densities, assayed one day after plating, are roughly 0.15-0.20 absorbance units greater than the media blank. Ninety-six well plates are seeded on day 0 and the test compounds are added on day 1. A control plate is created for each cell line that receives media only in row A and cells in row B. One day following plating, test compounds are added (in a final volume of 100 µL) to the test plates. Control plates receive 10 µL MTS mixture (prepared fresh on day of addition to cell plates at a ratio of 10 µL of a 0.92 mg/mL solution of PMS to a 190 µL of a 2 mg/mL solution of MTS) and 100 µL media. A490 of control plates is read 4 h after MTS addition to determine initial cell density values for each cell line. Three days after addition of test compound, 10 µL/well of MTS mixture is added to the test plates and A490 is read 4 h later. A490 values for wells containing cells are corrected for media absorbance, then normalized to initial density readings to determine percent net growth. IC50 values are determined from graphs of percent net growth as a function of compound concentration. Percent net growth is calculated as (Cell + Drug A490 - Initial A490/Cell + Drug Vehicle A490 - Initial A490) x 100%.

Data set [2] deals with A549 non-small cell lung carcinoma. Described as above. It is filed as cell-based, human. The following applies: Homo sapiens, 72 h; 3-day exposure, A549 cells; read-out: IC50 values (average ± S.D.) A549.
Description: as §1, §2, §3, §4

The subject of another data set is H1299 lung carcinoma. Described as above. The class given is cell-based. The following applies: Homo sapiens, NCI-H1299, 72 h; 3-day exposure, H1299 cells; read-out: IC50 values (average ± S.D.) H1299.
Description: as §1, §2
(§5) The H1299 lung, HCT-116 colon, and PC-3 prostate carcinoma cell lines, and U2OS osteosarcoma cell line were obtained from the American Type Culture Collection (ATCC) and used between passages 4-20 following thawing. H1299 and HCT-116 cells were maintained in RPMI 1640 containing 10% FBS, 100 units/mL penicillin and 100 µg/mL streptomycin; PC-3 cells were maintained in Kahn's Modification containing 10% FBS, 100 units/mL penicillin and 100 µg/mL streptomycin; and U2OS cells were maintained in DMEM containing 10% FBS, 100 units/mL penicillin and 100 µg/mL streptomycin.
as §4

In another data set the test system is HCT-116 colon carcinoma. The data set is described as above. Conditions: Homo sapiens, 72 h; 3-day exposure, HCT-116 cells; read-out: IC50 values (average ± S.D.) HCT-116. It is filed as cell-based.
Description: as §1, §2, §5, §4

The subject of a further data set is U2OS osteosarcoma. Described as above. The following applies: Homo sapiens, 72 h; 3-day exposure, U2OS cells; read-out: IC50 values (average ± S.D.) U2OS. The class given is cell-based.
Description: as §1, §2, §5, §4

In the next data set the test system is A549 tumor xenografts. As to the kind of experiment: Human tumor xenograft growth inhibition in athymic nude mice. The class given is in vivo. The following applies: 5X/week for 2 weeks; for Δ MTV / %T/C: recorded on day 24; for %T/C: * = p<0.05. On the procedure:
(§6) Utilizing this model, one can measure the ability of test compounds to inhibit the growth of human tumor xenografts growing subcutaneously (s.c.) in athymic nude mice. The histologic tumor type employed was MDA-MB-435 breast carcinoma for Ex.1 and 7 and A549 non-small cell lung carcinoma for Ex. 1-3.
A549 non-small cell lung carcinoma: Treatments were started 17 d post-implantation (1 x 10^7 cells/mouse), when a mean tumor volume of approximately 120 mm^3 was reached. Ex. 1-3 were administered iv on days 17-21 (followed by 2 d rest, then a second cycle of treatment on days 24-28). Total daily doses of 10 or 30 µmol/kg were administered as a single injection. Data in this table were recorded on day 24, 3 d after the last treatment of the first cycle. An asterisk (*) indicates p < 0.05 using a one-tailed Student's t-Test.
(§7) Toxicity was monitored by recording average group body weights twice weekly, and by daily observation of general health. Efficacy was monitored by taking measurements of tumor length, width, and depth weekly using digital calipers coupled to automated data collectors. Mean tumor volume (MTV) at initiation of therapy was subtracted from final MTV in order to express the actual tumor growth during treatment (A MTV). Anti-tumor activity was expressed as %T/C (A MTV of treated group ÷ Δ MTV of control group X100%). Statistical significance was evaluated using a one-tailed Student's t-test (p<0.05).
For orientation: Xenograft models place foreign cells or tissue in a host animal.

For the next data set, the system named is PC-3 prostate carcinoma. As to the kind of experiment: Anchorage Dependent Growth Monolayer Assay (ADGMA), MTS readout. It is filed as cell-based. Conditions: Homo sapiens, 72 h; 3-day exposure, PC-3 cells; read-out: IC50 values (average ± S.D.) PC-3.
Description: as §1, §2, §5, §4

The subject of data set [3] is MDA-MB-435 tumor xenografts. Kind of data set: Human tumor xenograft growth inhibition in athymic nude mice. The class given is in vivo. The following applies: 2 mg/kg iv, 3X/week for 3 weeks. The procedure: as §6
MDA-MB-435 human breast carcinoma: Treatments were started 15 d post implantation (3 x 10^6 cells/mouse), when a mean tumor volume of approximately 45 mm^3 was reached. Ex.1 and 7 were administered iv at three times per week for 3 weeks (days 15, 17, 20, 22, 24, 27, 29, and 31), at 3.3, 10, and 33 µmol/kg. Doxorubicin was administered iv at 2 mg/kg using the same schedule. Each data point represents tumor growth (mean ± SEM), or body weight (mean), with an initial group size of n = 8, from a representative experiment performed twice. An asterisk (*) indicates p < 0.05 using a one-tailed Student's t-test.
as §7

Regarding `CO[C@@H](C(=O)N[C@H]1CC[C@@H](OC(=O)OCCc2ccccc2)CNC1=O)[C@H](O)[C@@H](O)[C@H](O)/C=C/C(C)(C)C` [Ex. 3, (2R, 3R, 4S, 5R, 6E)-3,4,5-trihydroxy-2-methoxy-8,8-dimethyl-N-[(3S, 6R)-hexahydro-2-oxo-6-([[2-phenylethoxy]carbonyl]oxy)-2H-azepin-3-yl]non-6-enonamide], the IC50 (commonly the concentration that gives 50% inhibition) in data set [1] is 80 ± 30 nM; in data set [2], 132 ± 20 nM; with H1299 lung carcinoma, 330 ± 270 nM; in the data set with HCT-116 colon carcinoma it was 160 ± 30 nM; with U2OS osteosarcoma, 310 ± 40 nM. Besides, the Dead/Total in the data set on A549 tumor xenografts (10 µmol/kg iv daily) and in the data set on A549 tumor xenografts (30 µmol/kg iv daily) was 0/8 throughout. In addition, the “Δ MTV” value was found to be 106 mm^3 in the data set with A549 tumor xenografts (10 µmol/kg iv daily) and 55 mm^3 in the data set with A549 tumor xenografts (30 µmol/kg iv daily). In addition, the results for the “%T/C” value in the data set with A549 tumor xenografts (10 µmol/kg iv daily) and in the data set with A549 tumor xenografts (30 µmol/kg iv daily) were 82% and 42* %, respectively.

As to `CO[C@@H](C(=O)N[C@H]1CC[C@@H](OC(=O)OCc2ccccc2)CNC1=O)[C@H](O)[C@@H](O)[C@H](O)/C=C/C(C)(C)C` [Ex. 4, (2R, 3R, 4S, 5R, 6E)-3,4,5-trihydroxy-2-methoxy-8,8-dimethyl-N-[(3S, 6R)-hexahydro-2-oxo-6-([[phenylmethoxy]carbonyl]oxy)-2H-azepin-3-yl]non-6-enonamide], the IC50 in data set [1] came out at 130 ± 70 nM; in data set [2] it was 158 ± 16 nM; in the data set with H1299 lung carcinoma, 170 ± 130 nM; in the data set on HCT-116 colon carcinoma, 80 ± 10 nM; with PC-3 prostate carcinoma it was 80 nM; in the data set on U2OS osteosarcoma it was 250 ± 140 nM.

For the compound `COc1cccc2c1C(=O)c1c(O)c3c(c(O)c1C2=O)C[C@@](O)(C(=O)CO)C[C@@H]3O[C@H]1C[C@H](N)[C@H](O)[C@H](C)O1` [doxorubicin, reference compound], the IC50 in data set [1] was found to be 400 ± 10 nM; in data set [2], 500 ± 160 nM; in the data set on H1299 lung carcinoma it was 430 ± 290 nM; in the data set on HCT-116 colon carcinoma it was 80 ± 60 nM; in the data set on PC-3 prostate carcinoma, 330 ± 120 nM; in the data set with U2OS osteosarcoma, 130 ± 30 nM. Also, the Dead/Total in data set [3] is on record as 0/8. For the same compound, the “Δ MTV” value in data set [3] worked out at 82 mm^3. Besides, in data set [3] (* = p<0.05), the “%T/C” value is reported as 46* %.
